Data: patent publication US6686343B1, “Triazolopurine derivatives, pharmaceutical compositions containing the derivatives, and adenosine A3 receptor affinitive agents” (Otsuka Pharmaceutical Factory, Inc., priority 1999, dated 2004)

| SMILES | melting point |
| --- | --- |
| CC(=O)OCc1nc2nc[nH]c2c2nc(-c3ccc(-c4ccccc4)cc3)nn12 [Example 52, 8-(4-biphenylyl)-5-acetoxymethyl-1H-1,2,4-triazolo[5,1-i]purine] | 233 to 235 °C |
| CN(C)Cc1nc2nc[nH]c2c2nc(-c3ccc(-c4ccccc4)cc3)nn12 [Example 54, 8-(4-biphenylyl)-5-dimethylaminomethyl-1H-1,2,4-triazolo[5,1-i]purine] | 284 to 286 °C (dec.) |
| CN(C)CCCc1nc2nc[nH]c2c2nc(-c3ccc(-c4ccccc4)cc3)nn12 [Example 55, 8-(4-biphenylyl)-5-(3-dimethylaminopropyl)-1H-1,2,4-triazolo[5,1-i]purine] | 227 to 230 °C (dec.) |
| C[S+]([O-])Cc1nc2nc[nH]c2c2nc(-c3ccc(-c4ccccc4)cc3)nn12 (stereo not shown) [Example 60, 8-(4-biphenylyl)-5-methylsulfinylmethyl-1H-1,2,4-triazolo[5,1-i]purine] | ≥ 246 °C (dec.) |

The next lines start with the values.

| melting point | SMILES |
| --- | --- |
| 237 to 238 °C | c1ccc(COCCCc2nc3nc[nH]c3c3nc(-c4ccc(-c5ccccc5)cc4)nn23)cc1 [Example 56, 5-(3-benzyloxypropyl)-8-(4-biphenylyl)-1H-1,2,4-triazolo[5,1-i]purine] |
| 205 to 207 °C | c1ccc(COCCCCc2nc3nc[nH]c3c3nc(-c4ccc(-c5ccccc5)cc4)nn23)cc1 [Example 57, 5-(4-benzyloxybutyl)-8-(4-biphenylyl)-1H-1,2,4-triazolo[5,1-i]purine] |
| ≥ 234 °C (dec.) | C[S+]([O-])CCc1nc2nc[nH]c2c2nc(-c3ccc(-c4ccccc4)cc3)nn12 (stereo not shown) [Example 61, 8-(4-biphenylyl)-5-(2-methylsulfinylethyl)-1H-1,2,4-triazolo[5,1-i]purine] |
